# Measured values published in PubChem BioAssay (NCI).
#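 Tested at 5 concentrations; 48 h exposure; 96-well plates; endpoints linearly interpolated, else capped at highest concentration. The concentration for 50% growth inhibition is given as GI50. TGI is the concentration that stops growth completely.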
# How the values were obtained:
# Assay in all cases: NCI-60 cell line screen, 48 h
# [1] = system: HOP-92 NSCLC
# [2] = system: MOLT-4 leukemia
# [3] = system: CCRF-CEM leukemia
# [4] = system: COLO 205 colon
# [5] = system: KM12 colon
# [6] = system: HCC-2998 colon
# [7] = system: A549 NSCLC
# [8] = system: BT-549 breast
# [9] = system: SF-295 CNS
# [10] = system: SNB-19 CNS
# [11] = system: HCT-116 colon
# [12] = system: CAKI-1 renal
# [13] = system: SW-620 colon
# [14] = system: NCI-H460 lung
# [15] = system: OVCAR-5 ovarian
# [16] = system: OVCAR-8 ovarian
# [17] = system: SF-268 CNS
# [18] = system: SF-539 CNS
# [19] = system: OVCAR-3 ovarian
# [20] = system: MCF7 breast
# [21] = system: UACC-62 melanoma
# [22] = system: EKVX NSCLC
# [23] = system: U251 CNS
# [24] = system: NCI-H522 lung
# [25] = system: MDA-MB-231 breast
# [26] = system: RXF 393 renal
# [27] = system: ACHN renal
# [28] = system: M14 melanoma
# [29] = system: TK-10 renal
# [30] = system: MDA-MB-435
# [31] = system: DU-145 prostate
# [32] = system: UO-31 renal
# [33] = system: NCI/ADR-RES ovarian
# [34] = system: 786-0 renal
# [35] = system: HOP-62 NSCLC
# [36] = system: T-47D breast
# [37] = system: HS 578T breast
# [38] = system: OVCAR-4 ovarian
# [39] = system: SN12C renal
# [40] = system: HCT-15 colon
# [41] = system: A498 renal
# [42] = system: PC-3 prostate
# [43] = system: HL-60(TB) leukemia
# [44] = system: SK-MEL-5 melanoma
# [45] = system: NCI-H23 lung
# [46] = system: RPMI-8226 leukemia
# [47] = system: NCI-H226 lung
# [48] = system: SK-MEL-28 melanoma
# [49] = system: IGROV1 ovarian
# [50] = system: SK-MEL-2 melanoma
# [51] = system: UACC-257 melanoma
# [52] = system: HT29 colon
# [53] = system: MALME-3M melanoma
# [54] = system: LOX IMVI melanoma
# [55] = system: SK-OV-3 ovarian
# [56] = system: SNB-75 CNS
structure (smiles),measurement,setting,value
CCn1c2ccccc2c2cc(NC(=O)Nc3ccc([N+](=O)[O-])cc3C)ccc21,GI50,[1],1.27 µM
same,TGI,[1],4.64 µM
same,GI50,[2],1.29 µM
same,TGI,[2],3.85 µM
same,GI50,[3],1.62 µM
same,TGI,[3],4 µM
same,GI50,[4],2.82 µM
same,TGI,[4],10.3 µM
same,GI50,[5],2.69 µM
same,TGI,[5],16.8 µM
same,GI50,[6],4.25 µM
same,TGI,[6],> 100 µM
same,GI50,[7],3.01 µM
same,TGI,[7],15.6 µM
same,GI50,[8],2.02 µM
same,TGI,[8],6.46 µM
same,GI50,[9],2.29 µM
same,TGI,[9],9.13 µM
same,GI50,[10],8.95 µM
same,TGI,[10],> 100 µM
same,GI50,[11],3.17 µM
same,TGI,[11],17.4 µM
same,GI50,[12],4.35 µM
same,TGI,[12],17.5 µM
same,GI50,[13],3.38 µM
same,TGI,[13],48.1 µM
same,GI50,[14],3.09 µM
same,TGI,[14],14.8 µM
same,GI50,[15],22.5 µM
same,TGI,[15],> 100 µM
same,GI50,[16],4.61 µM
same,TGI,[16],37.7 µM
same,GI50,[17],12.2 µM
same,TGI,[17],> 100 µM
same,GI50,[18],1.83 µM
same,TGI,[18],4.41 µM
same,GI50,[19],3.39 µM
same,TGI,[19],19.4 µM
same,GI50,[20],3.7 µM
same,TGI,[20],> 100 µM
same,GI50,[21],5.76 µM
same,TGI,[21],> 100 µM
same,GI50,[22],5.35 µM
same,TGI,[22],> 100 µM
same,GI50,[23],3.85 µM
same,TGI,[23],21.6 µM
same,GI50,[24],1.96 µM
same,TGI,[24],7.64 µM
same,GI50,[25],3.66 µM
same,TGI,[25],24.6 µM
same,GI50,[26],1.36 µM
same,TGI,[26],6.27 µM
same,GI50,[27],3.56 µM
same,TGI,[27],14.9 µM
same,GI50,[28],6.21 µM
same,TGI,[28],64.1 µM
same,GI50,[29],3.62 µM
same,TGI,[29],15.3 µM
same,GI50,[30],2.62 µM
same,TGI,[30],23.5 µM
same,GI50,[31],5.38 µM
same,TGI,[31],> 100 µM
same,GI50,[32],2.68 µM
same,TGI,[32],17.1 µM
same,GI50,[33],4.65 µM
same,TGI,[33],> 100 µM
same,GI50,[34],4.61 µM
same,TGI,[34],84.9 µM
same,GI50,[35],5.02 µM
same,TGI,[35],55.2 µM
same,GI50,[36],2.34 µM
same,TGI,[36],9.54 µM
same,GI50,[37],2.2 µM
same,TGI,[37],8 µM
same,GI50,[38],5.48 µM
same,TGI,[38],85 µM
same,GI50,[39],9.3 µM
same,TGI,[39],> 100 µM
same,GI50,[40],2.29 µM
same,TGI,[40],37.3 µM
same,GI50,[41],11.5 µM
same,TGI,[41],64.1 µM
same,GI50,[42],2.73 µM
same,TGI,[42],10.8 µM
same,GI50,[43],1.06 µM
same,TGI,[43],5.85 µM
same,GI50,[44],14.3 µM
same,TGI,[44],> 100 µM
same,GI50,[45],3.9 µM
same,TGI,[45],30.6 µM
same,GI50,[46],1.4 µM
same,TGI,[46],4.01 µM
same,GI50,[47],4.4 µM
same,TGI,[47],29.2 µM
same,GI50,[48],5.33 µM
same,TGI,[48],26.2 µM
same,GI50,[49],3.38 µM
same,TGI,[49],14.1 µM
same,GI50,[50],3.33 µM
same,TGI,[50],15.4 µM
same,GI50,[51],16.6 µM
same,TGI,[51],68.7 µM
same,GI50,[52],3.01 µM
same,TGI,[52],15.6 µM
same,GI50,[53],2.28 µM
same,TGI,[53],13 µM
same,GI50,[54],4.98 µM
same,TGI,[54],> 100 µM
same,GI50,[55],18.1 µM
same,TGI,[55],> 100 µM
same,GI50,[56],3.05 µM
same,TGI,[56],17.6 µM
